Source: US5104869A, “Renin inhibitors” (American Cyanamid Company, priority 1990, dated 1992)

Target: T1, human kidney renin (Homo sapiens, UniProt P00797)
T1 construct: Human renin was prepared from human kidney; from tissue; host or cells: human kidney
T1 sequence (P00797 67-406): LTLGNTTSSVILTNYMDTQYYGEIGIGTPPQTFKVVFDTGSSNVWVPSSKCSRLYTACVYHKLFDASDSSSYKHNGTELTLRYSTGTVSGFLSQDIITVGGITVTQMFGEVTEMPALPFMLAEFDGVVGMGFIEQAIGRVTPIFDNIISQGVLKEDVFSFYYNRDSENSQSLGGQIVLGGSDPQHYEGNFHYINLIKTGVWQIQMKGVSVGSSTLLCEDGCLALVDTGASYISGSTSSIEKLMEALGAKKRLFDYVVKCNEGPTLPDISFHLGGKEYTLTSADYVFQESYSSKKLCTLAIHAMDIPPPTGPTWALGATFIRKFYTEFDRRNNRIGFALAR
Experiment: Radioimmunoassay Screen for Renin Inhibitors (in vitro angiotensin I generation, quantitated by radioimmunoassay)
Format: biochemical
Settings: purified human plasma angiotensinogen, pH 6.0, one hour at 37° C., read-out: Renin Inhibiton IC50
Procedure: The in vitro method for the screening of anti-renin compounds involves, first, angiotensin I generation, and second, the quantitation of the angiotensin I produced by radioimmunoassay.
The incubation medium consisted of 20 μl of purified human plasma angiotensinogen (1); 10 μl of human kidney renin (2); 5 μl of phenylmethylsulfonyl fluoride; 10 μl of disodium EDTA (10 mM); 10 μl of antirenin compound (5×10^-3, 5×10^-4, 5×10^-5) in dimethylformamide, or ethanol and a suitable amount of maleate buffer (77 mM, pH 6.0) to make a final volume of 500 μl. The reaction mixture was incubated for one hour at 37° C. and the enzymatic reaction was stopped by placing the tube in ice-cold water. The angiotensin I generated during the incubation was measured by a radioimmunoassay plasma renin activity kit (Clinical Assays, Inc.).
The incubation medium consisted of either 100 μl aliquots of the above reaction mixture or a standard amount of angiotensin I; 1000 μl of phosphate buffer (100 mM, pH 7.6) and 100 μl of (^125 I)angiotensinin a gamma-coat, tube. After three hours of incubation at room temperature, the tubes were decanted, and the radioactivity of each tube was determined in a gamma counter. Duplicate determinations were performed for each incubation. The results were expressed in ng of angiotensin I generated per ml of generation medium per hour of incubation (ng/AI/ml/hr).
(1) The human plasma angiotensinogen derived from the blood of a person receiving oral contraceptive pills was purified by chromatography on a pepstatinaminohexyl-agarose column.
(2) Human renin was prepared from human kidney.

| Compound | IC50 |
| --- | --- |
| CC(C)C[C@H](NC(=O)[C@@H](CC(=O)OC(C)(C)C)Cc1cccs1)C(=O)N[C@@H](CC(C)C)[C@@H](O)c1nccs1 | 100000 nM |
| CC(C)C[C@H](NC(=O)[C@H](Cc1ccccc1)OC(=O)N1CCOCC1)C(=O)N[C@@H](CC1CCCCC1)[C@@H](O)c1nccs1 | 11 nM |
| CC(C)C[C@H](NC(=O)[C@@H](CC(=O)N1CCOCC1)Cc1ccccc1)C(=O)N[C@@H](CC(C)C)[C@@H](O)c1nccs1 | 42000 nM |
| CC(C)(C)OC(=O)C[C@@H](Cc1cccc2ccccc12)C(=O)N[C@@H](Cc1cnc[nH]1)C(=O)N[C@@H](CC1CCCCC1)[C@@H](O)c1ccccn1 | 4800 nM |
| CC(C)C[C@H](NC(=O)[C@@H](CC(=O)NCCOc1ccccn1)Cc1cccc2ccccc12)C(=O)N[C@@H](CC(C)C)[C@@H](O)c1nccs1 | 44 nM |
| COC(CNC(=O)C[C@@H](Cc1cccc2ccccc12)C(=O)N[C@@H](CC(C)C)C(=O)N[C@@H](CC(C)C)[C@@H](O)c1nccs1)OC | 410 nM |
| O=C(N[C@@H](Cc1cnc[nH]1)C(=O)N[C@@H](CC1CCCCC1)[C@@H](O)c1cccs1)[C@@H](CC(=O)N1CCOCC1)Cc1cccc2ccccc12 | 270 nM |
| CC(C)C[C@H](NC(=O)[C@@H](CC(=O)NCCCN1CCCC1=O)Cc1ccccc1)C(=O)N[C@@H](CC1CCCCC1)[C@@H](O)c1ccccn1 | 130 nM |
| CC(C)C[C@H](NC(=O)[C@H](Cc1ccccc1)OC(=O)N1CCOCC1)C(=O)N[C@@H](CC1CCCCC1)[C@@H](O)c1ccco1 | 100 nM |
| O=C(N[C@@H](Cc1c[nH]cn1)C(=O)N[C@@H](CC1CCCCC1)[C@@H](O)c1nccs1)[C@@H](CC(=O)N1CCOCC1)Cc1ccccc1 | 15000 nM |
| CC(C)C[C@H](NC(=O)[C@@H](CC(=O)NCc1ccccn1)Cc1cccc2ccccc12)C(=O)N[C@@H](CC(C)C)[C@@H](O)c1nccs1 | 120 nM |
| COc1cc(C[C@H](CC(=O)O)C(=O)N[C@@H](CC(C)C)C(=O)N[C@@H](CC(C)C)[C@@H](O)c2nccs2)cc(OC)c1OC | 6000 nM |
